Experimental data reported in US4990613A, “(1R,5S,6S)-2-[(6,7-dih ydro-5H-pyrazolo[1,2-a][1,2,4]triazolium-6-yl)]thio-6-[R-1-hydroxyethyl]- 1-methyl-carbapenem-3-carboxylate and intermediate therefor” (Lederle (Japan), Ltd., priority 1987, dated 1991).
Read-outs that look alike come from different tables or passages of the source.

Key:
[1] = tested on: Streptococcus pyogenes Cook; assay: Antibacterial test, agar plate dilution method; details: Streptococcus pyogenes, 18 h
[2] = tested on: Escherichia coli K12 C600; assay: Antibacterial test, agar plate dilution method; type: cell-based; details: Escherichia coli, K12C600; 37° C., 18 hours, MH agar; read-out: MIC
[3] = tested on: Pseudomonas aeruginosa IFO 3445; assay: Antibacterial test, agar plate dilution method; details: Pseudomonas aeruginosa, IFO3445, 18 h
[4] = tested on: Salmonella typhimurium IID971; assay: Antibacterial test, agar plate dilution method; details: Salmonella enterica, 18 h
[5] = tested on: Salmonella schottmuelleri 8006; assay: Antibacterial test, agar plate dilution method; details: Salmonella, 8006, 18 h
[6] = tested on: Micrococcus luteus ATCC9341; assay: Antibacterial test, agar plate dilution method; details: Micrococcus luteus, ATCC9341, 18 h
[7] = tested on: Klebsiella pneumoniae PCI-602; assay: Antibacterial test, agar plate dilution method; details: Klebsiella pneumoniae, PCI602, 18 h
[8] = tested on: Morganella morganii IFO3848; assay: Antibacterial test, agar plate dilution method; details: Morganella morganii, IFO3848, 18 h
[9] = tested on: Salmonella paratyphi 1015; assay: Antibacterial test, agar plate dilution method; type: cell-based; details: Salmonella enterica, PARATYPHI, 18 h
[10] = tested on: Staphylococcus aureus Terajima; assay: Antibacterial test, agar plate dilution method; details: Staphylococcus aureus, 18 h
[11] = tested on: Proteus morganii GN 5307; assay: Antibacterial activity against clinically isolated β-lactamase producing strains; type: cell-based; details: Morganella morganii, GN5307; cephalosporinase producing strain, 18 to 20 hours; read-out: MIC
Procedure: (§1) A solution of a cephalosporinase producing strain stored by Episome Research Institute, which was prepared by incubating the strain in a sensitivity test broth (STB; product of Nissui K.K.) for 18 hours, was diluted with a fresh STB solution to contain 10^5 cells per milliliter and the diluted solution was then inoculated as spots with a microplanter on a sensitivity disk agar-N (SDA; product of Nissui K.K.) containing a test compound. The disk agar was then incubated for 18 to 20 hours. A minimum inhibitory concentration was determined as a minimum concentration in which the test microorganism had no longer grown after a 18 to 20 hour incubation.

[12] = tested on: Serratia marcescens L-82; assay: as above; type: cell-based; details: Serratia marcescens, L82; cephalosporinase producing strain, 18 to 20 hours; read-out: MIC
Procedure: as §1

[13] = tested on: Escherichia coli No. 96; assay: as above; type: cell-based; details: Escherichia coli, NO.96; cephalosporinase producing strain, 18 to 20 hours; read-out: MIC
Procedure: as §1

[14] = tested on: Providencia rettgeri GN 4762; assay: as above; type: cell-based; details: Providencia rettgeri, GN4762; cephalosporinase producing strain, 18 to 20 hours; read-out: MIC
Procedure: as §1

[15] = tested on: Pseudomonas aeruginosa GN 10367; assay: as above; type: cell-based; details: Pseudomonas aeruginosa, GN10367
Procedure: as §1

[16] = tested on: Pseudomonas aeruginosa GN 10362; assay: as above; type: cell-based; details: Pseudomonas aeruginosa, GN10362
Procedure: as §1

[17] = tested on: Escherichia coli GN 5482; assay: as above; type: cell-based; details: Escherichia coli, GN5482; cephalosporinase producing strain, 18 to 20 hours; read-out: MIC
Procedure: as §1

[18] = tested on: Proteus vulgaris GN 7919; assay: as above; type: cell-based; details: Proteus vulgaris, GN7919
Procedure: as §1

[19] = tested on: Enterobacter cloacae GN 5797; assay: as above; type: cell-based; details: Enterobacter cloacae, GN5797; cephalosporinase producing strain, 18 to 20 hours; read-out: MIC
Procedure: as §1

[20] = tested on: Providencia rettgeri GN 5284; assay: as above; type: cell-based; details: Providencia rettgeri, GN5284; cephalosporinase producing strain, 18 to 20 hours; read-out: MIC
Procedure: as §1

[21] = tested on: Serratia marcescens L-65; assay: as above; type: cell-based; details: Serratia marcescens, L65; cephalosporinase producing strain, 18 to 20 hours; read-out: MIC
Procedure: as §1

[22] = tested on: Proteus morganii GN 5375; assay: as above; type: cell-based; details: Morganella morganii, GN5375
Procedure: as §1

[23] = tested on: Serratia marcescens GN 10857; assay: as above; type: cell-based; details: Serratia marcescens, GN10857
Procedure: as §1

[24] = tested on: Providencia rettgeri GN 4430; assay: as above; type: cell-based; details: Providencia rettgeri, GN4430; cephalosporinase producing strain, 18 to 20 hours; read-out: MIC
Procedure: as §1

[25] = tested on: Klebsiella oxytoca GN 10650; assay: as above; type: cell-based; details: Klebsiella oxytoca, GN10650; cephalosporinase producing strain, 18 to 20 hours; read-out: MIC
Procedure: as §1

[26] = tested on: Escherichia coli NIHJ JC-2; assay: Antibacterial test, agar plate dilution method; details: Escherichia coli, NIHJJC2, 18 h
[27] = tested on: Serratia marcescens IAM1184; assay: Antibacterial test, agar plate dilution method; details: Serratia marcescens, IAM1184, 18 h
[28] = tested on: Staphylococcus aureus MS352; assay: Antibacterial test, agar plate dilution method; details: Staphylococcus aureus, MS352, 18 h
[29] = tested on: Salmonella enteritidis G14; assay: Antibacterial test, agar plate dilution method; details: Salmonella enterica, ENTERITIDIS, 18 h
[30] = tested on: Providencia rettgeri IFO 3850; assay: Antibacterial test, agar plate dilution method; details: Providencia rettgeri, IFO3850, 18 h
[31] = tested on: Salmonella typhi 901; assay: Antibacterial test, agar plate dilution method; type: cell-based; details: Salmonella enterica, TYPHI, 18 h
[32] = tested on: Enterobacter cloacae 963; assay: Antibacterial test, agar plate dilution method; details: Enterobacter cloacae, 963, 18 h
[33] = cephalosporinase producing strain, 18 to 20 hours, read-out: MIC

Measured: MIC

Cc1nnc(SCC2=C(C(=O)O)N3C(=O)[C@@H](NC(=O)Cn4cnnn4)[C@H]3SC2)s1 [CEZ]
25 µg/mL: [8]
3.13 µg/mL: [15] | [16] | [18]
0.2 µg/mL: [11] | [20] | [21] | [22]; [33] | [24] | [25]
12.5 µg/mL: [30]
1.56 µg/mL: [9]
0.05 µg/mL: [10]
> 100 µg/mL: [3] | [27] | [32]
0.1 µg/mL: [1] | [28]
0.78 µg/mL: [2] | [4] | [5] | [7] | [13] | [14] | [17] | [23]; [33] | [26] | [29] | [31]
0.39 µg/mL: [6] | [12] | [19]

C[C@@H](O)[C@H]1C(=O)N2C(C(=O)O)=C(SCCN=CN)C[C@H]12 [Imipenem]
0.2 µg/mL: [12] | [25] | [32]
3.13 µg/mL: [2] | [22] | [23]
0.39 µg/mL: [4] | [7] | [8] | [14] | [18]; [33] | [19] | [20] | [21] | [24] | [27]
0.013 µg/mL: [28]
0.1 µg/mL: [13] | [17] | [26] | [31]
< 0.006 µg/mL: [1] | [10]
1.56 µg/mL: [9] | [15]
0.78 µg/mL: [3] | [5] | [11] | [16]; [33] | [29] | [30]
0.025 µg/mL: [6]
